The source of these data is publication PMC11983664, “Preclinical Pharmacokinetic Assessment of a Promising Vasorelaxant, Analgesic, and Anti‐Inflammatory Prototype 5‐[1‐(4‐Fluorophenyl)‐1H‐pyrazol‐4‐yl]‐2H‐tetrazole (LQFM020) Through Selective Bioanalytical HPLC‐PDA‐Based Method” (Biomedical Chromatography, 2025).

For data set [1] the following is noted: mouse, in vivo, po; cited from earlier work.
The nature of data set [2]: Pharmacokinetic study after intravenous bolus administration in rats. Type of data set: in vivo, male Wistar rats. To be noted: i.v. 10 mg/kg, male adult rats; for AUC(0-t) / half-life: male, Wistar, rat, plasma, iv. As to the method:
(§1) Male Wistar rats (250–300 g) obtained from Central Vivarium of Federal University of Goiás (UFG) were housed under a 12‐h light/dark cycle (22°C–23°C), with free access to food and water. This in vivo pharmacokinetic study was conducted in accordance with Ethical Principles in Animal Research, adopted by International Guiding Principles for Biomedical Research Involving Animals and approved by the Institutional Ethics in Research Committee at the UFG (Protocol CEUA/UFG 085/17). All efforts were made to minimize animal suffering as preconized by regulatory institutions.
(§2) LQFM020 was prepared in physiological solution containing DMSO 1% at dose of 10 mg/kg for intravenous administration (i.v., bolus), and then, blood samples (0.5 mL) were collected at 0, 0.5, 1, 2, 3, 4, 5, 6, and 24 h in heparinized microtubes. Oral administration (p.o.) was performed at LQFM020 dose of 9, 18, or 36 mg/kg prepared in physiological solution with DMSO 1%. Blood samples (0.5 mL) were collected at 0, 0.5, 1, 2, 3, 4, 5, 6, and 24 h in heparinized microtubes. Plasma samples were obtained by blood centrifugation (3000 g, 10 min) and were stored at −20°C.
(§3) LQFM020 pharmacokinetic parameters were obtained by non‐compartmental model, including peak plasma concentration (Cmax) and time to reach it (Tmax), elimination half‐life (t1/2), elimination constant (Kel), total area under the curve of plasma concentration versus time (AUCT), apparent distribution volume (Vd), clearance (Cl), and mean residence time (MRT). These pharmacokinetic parameters were calculated by Phoenix Connect 1.3.1 software (Certara, Princeton, NJ, USA).

The nature of data set [3]: Pharmacokinetic study after oral administration in rats. Type of data set: in vivo, male Wistar rats. How it is done: as §1, §2, §3
LQFM020 absolute oral bioavailability F(%) was obtained applying AUCT and dose (D) from p.o. and i.v. administration, according to the equation: F%=AUCp.o./AUCi.v.×Di.v./Dp.o.×100

The next data set relates to 3T3 cell. More on the design: method as in de Oliveira et al. [2017]. To be noted: 3T3 cells; ref de Oliveira et al. [2017]; cited from earlier work.
The target of the next data set is CYP3A4 (Homo sapiens, UniProt P08684). Kind of data set: CYP3A enzyme inhibition in vitro analysis (midazolam biotransformation, HPLC-PDA). The format is in vitro ADME. Conditions: LQFM020 100 μg/mL, midazolam 10 μg/mL, 37°C, 2 h. As to the method:
LQFM020 was evaluated for its ability to inhibit CYP3A4—the main subfamily responsible for drug metabolism in humans. […] Cold methanol was added after stirring these mixtures at 37°C for 2 h to stop the reaction and then centrifuged at 13,000 g for 10 min. The supernatant was filtered in Millex 0.22 μm pore and injected into HPLC system for the quantitation of midazolam. All samples were prepared in quintuplicate and analyzed by a HPLC‐PDA‐based method rigorously validated in our laboratory routine for the midazolam metabolites' quantification 1‐hydroxydazolam (1‐HMDZ) and 4‐hydroxydazolam (4‐HMDZ) (Ramirez De Oliveira et al. [2015]).

A short description of data set [4]: Stability of LQFM020 in rat plasma (short-term, freeze-thaw, long-term). The format is in vitro ADME. Conditions: n = 3. How it is done:
Bioanalytical method validation was conducted in accordance with the guideline of Brazilian Health Surveillance Agency (ANVISA) RDC 27/2012, analyzing several parameters, such as matrix effect, recovery, selectivity, linearity, precision and accuracy, and stabilities (short‐term, long‐term, and freezing/thawing cycles) (ANVISA [2012]).
Indeed, rat plasma concentrations (n = 3) of LQC and HQC presented a nonsignificant degradation below ±15% (RE), ranging from 89.2 ± 2.2% (short term) to 107.5 ± 1.8% (long term) at the end of storage condition times, as shown in Table 2.

On the set-up of data set [5]: method as in earlier work. To be noted: oral; ref Davies et al. [2000]; Dhondt et al. [2017]; Gong et al. [2012]; cited from earlier work.
[6] abbreviates: individual animals 1-3, 10 mg/kg.
[7] abbreviates: 10 mg/kg, individual animals 1-3.
Where [8] appears, read: Wistar, rat, plasma, oral 9 mg/kg, male adult rats, mean ± SEM, n = 3.
The mark [9] stands for this setting: Wistar, rat, plasma, oral 18 mg/kg, male adult rats, mean ± SEM, n = 3.
Where [10] appears, read: Wistar, rat, plasma, oral 36 mg/kg, male adult rats, mean ± SEM, n = 3.

“And” between values parts separate entries of the source, which are not always exact repeats. Equal values may be shown once. “Also recorded” adds a separate entry of the source. Read-outs that look alike come from different tables or passages of the source.

Sequence of CYP3A4 (P08684 whole entry): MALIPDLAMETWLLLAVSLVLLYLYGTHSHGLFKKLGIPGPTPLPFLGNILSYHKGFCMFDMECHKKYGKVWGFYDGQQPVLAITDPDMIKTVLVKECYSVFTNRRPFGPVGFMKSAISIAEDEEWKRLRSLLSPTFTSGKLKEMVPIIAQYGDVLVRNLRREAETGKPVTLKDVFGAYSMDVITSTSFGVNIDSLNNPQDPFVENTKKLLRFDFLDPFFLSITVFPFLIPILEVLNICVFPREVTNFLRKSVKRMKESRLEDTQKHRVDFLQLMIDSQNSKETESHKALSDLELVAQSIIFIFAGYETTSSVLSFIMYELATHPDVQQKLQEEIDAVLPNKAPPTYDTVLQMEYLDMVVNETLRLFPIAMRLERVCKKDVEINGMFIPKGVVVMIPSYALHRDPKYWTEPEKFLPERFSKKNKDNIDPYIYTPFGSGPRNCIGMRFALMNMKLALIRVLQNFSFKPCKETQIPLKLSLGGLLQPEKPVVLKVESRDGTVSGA

On to `Fc1ccc(-n2cc(-c3nn[nH]n3)cn2)cc1` [LQFM020, 5‐[1‐(4‐fluorophenyl)‐1H‐pyrazol‐4‐yl]‐2H‐tetrazole], for which the “orally well tolerated dose” value in data set [1] is recorded as no more than 2000 mg/kg. In addition, the AUCT in data set [2] (setting [6]) was 1064.89 µg·h/mL and 1314.07 µg·h/mL. Besides, the ClT/F is 12 mL/day/kg and 13 mL/day/kg and 10 mL/day/kg in data set [2] (setting [6]); 12 ± 0 mL/day/kg in data set [2] (mean ± SEM, n = 3). For the same compound, the Vd/F (as a rule, the volume of distribution divided by bioavailability) in data set [2] (setting [6]) was 0.032 L/kg and 0.041 L/kg and 0.036 L/kg; in data set [2] (mean ± SEM, n = 3), 0.03 ± 0.00 L/kg; in data set [3] (setting [8]), 0.86 ± 0.4 L/kg; in data set [3] (setting [9]), 1.44 ± 0.36 L/kg; in data set [3] (setting [10]), 1.16 ± 0.26 L/kg. Besides, the t1/2 in data set [2] (setting [6]) is 3.06 h and 3.26 h; in data set [2] (mean ± SEM, n = 3, 10 mg/kg), 3.05 ± 0.12 h. The AUC(0-t) – broadly, the area under the concentration-time curve up to a stated or last time point – in data set [2] (setting [7]) is 1230 µg·h/mL; in data set [2] (10 mg/kg, mean ± SEM, n = 3), 1220 ± 77.9 µg·h/mL; in data set [3] (setting [8]) it was 69.8 ± 5.33 µg·h/mL; in data set [3] (setting [9]), 110 ± 17.1 µg·h/mL; in data set [3] (setting [10]), 287 ± 82.4 µg·h/mL. The half-life in data set [2] (setting [7]) was 2.83 h; in data set [2] (10 mg/kg, mean ± SEM, n = 3), roughly 3 h; in data set [3] (Wistar, rat, plasma, oral 9 mg/kg, male adult rats, mean ± SEM, n = 3, read-out: t1/2 (converted)), 5.82 ± 2.35 h; in data set [3] (Wistar, rat, plasma, oral 18 mg/kg, male adult rats, mean ± SEM, n = 3, read-out: t1/2 (converted)), 5.85 ± 0.96 h; in data set [3] (Wistar, rat, plasma, oral 36 mg/kg, male adult rats, mean ± SEM, n = 3, read-out: t1/2 (converted)), 6.74 ± 2.47 h; in data set [3] (male, Wistar, rat, plasma, oral administration, rats, overall, read-out: elimination half-time (t1/2) (converted)), roughly 6 h. The values for the Cmax in data set [3] (setting [8]), in data set [3] (setting [9]) and in data set [3] (setting [10]) were 16600 ± 4410 ng/mL, 26600 ± 2030 ng/mL and 55200 ± 21100 ng/mL, respectively. The Tmax (usually the time from dosing to the highest level) in data set [3] (setting [8]) was 1.66 ± 0.66 h; in data set [3] (setting [9]) it was 0.83 ± 0.17 h; in data set [3] (setting [10]), 1.67 ± 0.66 h. The bioavailability (usually dose-corrected exposure relative to a reference, in per cent) in data set [3] (male, Wistar, plasma, oral, rat, from AUC and dose of p.o. and i.v. (10 mg/kg) administration, read-out: absolute oral bioavailability F(%)) was 46%. Moreover, the ClT in data set [3] (oral 9 mg/kg, male adult rats, mean ± SEM, n = 3) turned out to be 158 ± 14 mL/day/kg; in data set [3] (oral 18 mg/kg, male adult rats, mean ± SEM, n = 3), 230 ± 29 mL/day/kg; in data set [3] (oral 36 mg/kg, male adult rats, mean ± SEM, n = 3), 216 ± 86 mL/day/kg. Also, in the data set with 3T3 cell, the “concentrations reducing 3T3 cell viability” value was 350 to 1400 µM. For the same compound, on CYP3A4, the “inhibition of CYP3A4 (peak areas of midazolam metabolites 1-HMDZ and 4-HMDZ vs negative control)” value was “no significant effect; also recorded: absence of inhibition; also recorded: does not change the biotransformation”. Besides, the “Stability, Accuracy (RE) (Mean ± CV%)” value in data set [4] (freeze–thaw (3 cycles), nominal 0.75 μg/mL) was 96.4 ± 2.6%; in data set [4] (freeze–thaw (3 cycles), nominal 15 μg/mL) it was 96.0 ± 5.3%; in data set [4] (long duration (30 days, −20°C), nominal 0.75 μg/mL), 102.1 ± 6.5%; in data set [4] (long duration (30 days, −20°C), nominal 15 μg/mL), 107.5 ± 1.8%; in data set [4] (short duration (RT, 4 h), nominal 0.75 μg/mL), 89.2 ± 2.2%; in data set [4] (short duration (RT, 4 h), nominal 15 μg/mL) it was 94.5 ± 5.2%.
Consider `Cc1ccc(-c2cc(C(F)(F)F)nn2-c2ccc(S(N)(=O)=O)cc2)cc1` [celecoxib], for which the Tmax in data set [5] was 2 to 4 h.
